# From US20220289753A1, “SHP2 INHIBITORS” (IRBM S.P.A., priority 2019, published 2022)
# Biological target: T1, SHP-2 enzyme (Met1-Leu525) (Homo sapiens, UniProt Q06124)
# T1 construct: synthetized by Origene, Met1-Leu525, cat #TP750155; purchased Origene TP750155
# T1 sequence (Q06124 1-525): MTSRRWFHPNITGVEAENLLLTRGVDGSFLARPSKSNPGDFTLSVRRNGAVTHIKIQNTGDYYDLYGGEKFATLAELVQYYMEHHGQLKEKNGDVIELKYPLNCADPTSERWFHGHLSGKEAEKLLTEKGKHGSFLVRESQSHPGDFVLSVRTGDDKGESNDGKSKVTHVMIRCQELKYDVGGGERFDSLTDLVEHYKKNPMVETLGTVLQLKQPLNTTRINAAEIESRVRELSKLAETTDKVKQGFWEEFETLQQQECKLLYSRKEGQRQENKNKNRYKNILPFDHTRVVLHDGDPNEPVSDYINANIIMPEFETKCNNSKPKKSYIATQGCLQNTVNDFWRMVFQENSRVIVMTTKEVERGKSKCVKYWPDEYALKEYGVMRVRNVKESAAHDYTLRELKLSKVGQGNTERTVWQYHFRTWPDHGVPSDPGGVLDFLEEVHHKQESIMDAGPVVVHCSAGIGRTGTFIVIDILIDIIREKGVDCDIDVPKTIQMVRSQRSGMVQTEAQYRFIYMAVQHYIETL
# Assay: SHP2 inhibition enzymatic assay (DiFMUP substrate, IRS1 peptide activation)
# Type: biochemical
# Conditions: SHP2 wt; activated by 500 nM IRS1 peptide; 75 μM DiFMUP substrate
# Procedure: SHP2 Inhibition Enzymatic Assay
# Assay volume of 20 μL/well was assembled in 384 well black polystyrene low-binding microplates (Greiner), using the following buffer: 60 mM HEPES pH 7.2, 75 mM NaCl, 75 mM KCl, 1 mM EDTA pH 8, 0.05% tween-20, 5 mM DTT. The SHP-2 enzyme (synthetized by Origene, Met1-Leu525, cat #TP750155) was used at a final concentration of 0.5 nM.
# Briefly, DMSO serially diluted testing compounds were transferred to the bottom of the assay plate. SHP2 was then added together with the IRS1 peptide. 30 minutes post incubation, the DiFMUP substrate was added to the reaction and incubated 30 min at room temperature. […] The fluorescence was detected by a microplate reader (Envision, PerkinElmer) according to the DiFMUP excitation and emission wavelength. The lower the fluorescence the higher the SHP2 inhibition.
# The percentage inhibition is fitted against the compound dilutions with a four-parameter logistic regression. The inflection point (i.e. the concentration at which half-maximal inhibition is achieved) is the IC50.
row,Compound,IC50
1,"CC1(N)CCN(c2nc3nc(Sc4cc(C(F)(F)F)ccc4Cl)cnc3[nH]2)CC1 [Example 36, 1-(5-((2-chloro-5-(trifluoromethyl)phenyl)thio)-1H-imidazo[4,5-b]pyrazin-2-yl)-4-methylpiperidin-4-amine]",0.5 to 3 µM
2,"CC1(N)CCN(c2nc3ncc(Sc4ccc(C5(C#N)CCC5)cc4)nc3[nH]2)CC1 [Example 29, 1-(4-((2-(4-amino-4-methylpiperidin-1-yl)-1H-imidazo[4,5-b]pyrazin-6-yl)thio)phenyl)cyclobutane-1-carbonitrile]",> 3 µM
3,"CC1(N)CCN(c2nc3ncc(Sc4ccc(-n5nc[nH]c5=O)cc4)nc3[nH]2)CC1 [Example 10, 2-(4-((2-(4-amino-4-methylpiperidin-1-yl)-1H-imidazo[4,5-b]pyrazin-6-yl)thio)phenyl)-2,4-dihydro-3H-1,2,4-triazol-3-one]",0.5 to 3 µM
4,"FC(F)(F)c1ncccc1Sc1cnc2[nH]c(NCCCN3CCOCC3)nc2n1 [Example 123, N-(3-morpholinopropyl)-5-((2-(trifluoromethyl)pyridin-3-yl)thio)-1H-imidazo[4,5-b]pyrazin-2-amine]",> 3 µM
5,"CN1CCOc2ccc(Sc3cnc4[nH]c(N5CCC(C)(N)CC5)nc4n3)cc21 [Example 67, 4-methyl-1-(5-((4-methyl-3,4-dihydro-2H-benzo[b][1,4]oxazin-6-yl)thio)-1H-imidazo[4,5-b]pyrazin-2-yl)piperidin-4-amine]",> 3 µM
6,"FC(F)(F)c1ncccc1Sc1cnc2[nH]c(N3C[C@@H]4CC[C@H]3CN4)nc2n1 [Example 90, (1S,4S)-2-(5-((2-(trifluoromethyl)pyridin-3-yl)thio)-1H-imidazo[4,5-b]pyrazin-2-yl)-2,5-diazabicyclo[2.2.2]octane]",0.5 to 3 µM
7,"FC(F)(F)c1ncccc1Sc1cnc2[nH]c(N3CCC(Cn4ccnc4)CC3)nc2n1 [Example 42, 2-(4-((1H-imidazol-1-yl)methyl)piperidin-1-yl)-5-((2-(trifluoromethyl)pyridin-3-yl)thio)-1H-imidazo[4,5-b]pyrazine]",0.5 to 3 µM
8,"NC1CN(c2nc3nc(Sc4cccnc4C(F)(F)F)cnc3[nH]2)C1 [Example 15, 1-(5-((2-(trifluoromethyl)pyridin-3-yl)thio)-1H-imidazo[4,5-b]pyrazin-2-yl)azetidin-3-amine]",> 3 µM
9,"FC(F)(F)c1ncccc1Sc1cnc2[nH]c(N3CCC4(CCN4)CC3)nc2n1 [Example 5, 2-(1,7-diazaspiro[3.5]nonan-7-yl)-5-((2-(trifluoromethyl)pyridin-3-yl)thio)-1H-imidazo[4,5-b]pyrazine]",0.5 to 3 µM
10,"CC1(N)CCN(c2nc3nc(Sc4ccsc4Cl)cnc3[nH]2)CC1 [Example 73, 1-(5-((2-chlorothiophen-3-yl)thio)-1H-imidazo[4,5-b]pyrazin-2-yl)-4-methylpiperidin-4-amine]",< 0.5 µM
11,"FC(F)(F)c1ncccc1Sc1cnc2[nH]c(N3CCN4CCNCC4C3)nc2n1 (stereo not shown) [Example 56, 2-(5-((2-(trifluoromethyl)pyridin-3-yl)thio)-1H-imidazo[4,5-b]pyrazin-2-yl)octahydro-2H-pyrazino[1,2-a]pyrazine]",0.5 to 3 µM
12,"CC1(N)CCN(c2nc3nc(Sc4cccnc4C(F)(F)F)cnc3n2CC2CC2)CC1 [Example 13, 1-(1-(cyclopropylmethyl)-5-((2-(trifluoromethyl)pyridin-3-yl)thio)-1H-imidazo[4,5-b]pyrazin-2-yl)-4-methylpiperidin-4-amine]",0.5 to 3 µM
13,"CC1(N)CCN(c2nc3nc(Sc4ccnc5ccnn45)cnc3[nH]2)CC1 [Example 104, 4-methyl-1-(5-(pyrazolo[1,5-a]pyrimidin-7-ylthio)-1H-imidazo[4,5-b]pyrazin-2-yl)piperidin-4-amine]",> 3 µM
14,"CC1(N)CCN(c2nc3ncc(Oc4cccc(Cl)c4Cl)nc3[nH]2)CC1 [Example 122, 1-(5-(2,3-dichlorophenoxy)-1H-imidazo[4,5-b]pyrazin-2-yl)-4-methylpiperidin-4-amine]",0.5 to 3 µM
15,"COc1ccc(Sc2cnc3[nH]c(N4CCC(C)(N)CC4)nc3n2)cc1 [Example 45, 1-(5-((4-methoxyphenyl)thio)-1H-imidazo[4,5-b]pyrazin-2-yl)-4-methylpiperidin-4-amine]",0.5 to 3 µM
16,"CCn1c(N2CCC(C)(N)CC2)nc2nc(Sc3cccnc3C(F)(F)F)cnc21 [Example 63, 1-(1-ethyl-5-((2-(trifluoromethyl)pyridin-3-yl)thio)-1H-imidazo[4,5-b]pyrazin-2-yl)-4-methylpiperidin-4-amine]",0.5 to 3 µM
17,"CC1(N)CCN(c2nc3nc(Sc4ccnc(Br)c4)cnc3[nH]2)CC1 [Example 64, 1-(5-((2-bromopyridin-4-yl)thio)-1H-imidazo[4,5-b]pyrazin-2-yl)-4-methylpiperidin-4-amine]",0.5 to 3 µM
18,"O=C1NCC2(CCCN(c3nc4nc(Sc5cccnc5C(F)(F)F)cnc4[nH]3)C2)O1 (stereo not shown) [Example 83, 7-(5-((2-(trifluoromethyl)pyridin-3-yl)thio)-1H-imidazo[4,5-b]pyrazin-2-yl)-1-oxa-3,7-diazaspiro[4.5]decan-2-one]",> 3 µM

# Continued, values first:
row,IC50,Compound
1,< 0.5 µM,"Cc1cccc(Sc2cnc3[nH]c(N4CCC(C)(N)CC4)nc3n2)c1C [Example 39, 1-(5-((2,3-dimethylphenyl)thio)-1H-imidazo [4,5-b]pyrazin-2-yl)-4-methylpiperidin-4-amine]"
2,0.5 to 3 µM,"CC1(N)CCN(c2nc3nc(Sc4cccc(C#N)c4)cnc3[nH]2)CC1 [Example 26, 3-((2-(4-amino-4-methylpiperidin-1-yl)-1H-imidazo[4,5-b]pyrazin-5-yl)thio)benzonitrile]"
3,> 3 µM,"CC1(N)CCN(c2nc3nc(Sc4cccc(O)n4)cnc3[nH]2)CC1 [Example 66, 6-((2-(4-amino-4-methylpiperidin-1-yl)-1H-imidazo[4,5-b]pyrazin-5-yl)thio)pyridin-2-ol]"
4,0.5 to 3 µM,"CC1(N)CCN(c2nc3ncc(Sc4csc5cnccc45)nc3[nH]2)CC1 [Example 9, 4-methyl-1-(6-(thieno[2,3-c]pyridin-3-ylthio)-1H-imidazo[4,5-b]pyrazin-2-yl)piperidin-4-amine]"
5,0.5 to 3 µM,"CC1(N)CCN(c2nc3nc(Sc4ccc5ccccc5c4)cnc3[nH]2)CC1 [Example 81, 4-methyl-1-(5-(naphthalen-2-ylthio)-1H-imidazo[4,5-b]pyrazin-2-yl)piperidin-4-amine]"
6,0.5 to 3 µM,"CC1(N)CCN(c2nc3nc(Sc4ccncc4)cnc3[nH]2)CC1 [Example 80, 4-methyl-1-(5-(pyridin-4-ylthio)-1H-imidazo[4,5-b]pyrazin-2-yl)piperidin-4-amine]"
7,< 0.5 µM,"N[C@@H]1c2ccccc2CC12CCN(c1nc3nc(Sc4ccnc5ccsc45)cnc3[nH]1)CC2 [Example 212, (S)-1′-(5-(thieno[3,2-b]pyridin-7-ylthio)-1H-imidazo[4,5-b]pyrazin-2-yl)-1,3-dihydrospiro[indene-2,4′-piperidin]-1-amine]"
8,< 0.5 µM,"COc1ncccc1Sc1cnc2[nH]c(N3CCC4(CC3)Cc3ccccc3[C@H]4N)nc2n1 [Example 214, (S)-1′-(5-((2-methoxypyridin-3-yl)thio)-1H-imidazo[4,5-b]pyrazin-2-yl)-1,3-dihydrospiro[indene-2,4′-piperidin]-1-amine]"
9,< 0.5 µM,"Cc1cc(Cl)ccc1Sc1cnc2[nH]c(N3CCC(C)(N)CC3)nc2n1 [Example 38, 1-(5-((4-chloro-2-methylphenyl)thio)-1H-imidazo[4,5-b]pyrazin-2-yl)-4-methylpiperidin-4-amine]"
10,< 0.5 µM,"Nc1cnccc1Sc1cnc2[nH]c(N3CCC4(CC3)Cc3ccccc3[C@H]4N)nc2n1 [Example 210, (S)-1′-(5-((3-aminopyridin-4-yl)thio)-1H-imidazo[4,5-b]pyrazin-2-yl)-1,3-dihydrospiro[indene-2,4′-piperidin]-1-amine]"
11,0.5 to 3 µM,CC1(N)CCN(c2nc3nc(Sc4ccnc5c(C(F)(F)F)cccc45)cnc3[nH]2)CC1 [Example 97]
12,< 0.5 µM,"CC1(N)CCN(c2nc3nc(Sc4cccc5cnccc45)cnc3[nH]2)CC1 [Example 70, 1-(5-(isoquinolin-5-ylthio)-1H-imidazo[4,5-b]pyrazin-2-yl)-4-methylpiperidin-4-amine]"
13,> 3 µM,"NC(=O)Cn1c(N2CCC3(CC2)Cc2ccccc2[C@H]3N)nc2nc(Sc3cccnc3C(F)(F)F)cnc21 [Example 137, (S)-2-(2-(1-amino-1,3-dihydrospiro[indene-2,4′-piperidin]-1′-yl)-5-((2-(trifluoromethyl)pyridin-3-yl)thio)-1H-imidazo[4,5-b]pyrazin-1-yl)acetamide]"
